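Compound exposure: 48 hours, 5 concentrations, 96-well plates. GI50 = concentration required for 50% inhibition of growth.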 Active and inactive are the calls of the source. No stated cut-off is given here; in the data, active = GI50 up to about 1.1 µM and inactive = higher.
Key:
Experiment in all cases: NCI-60 cell line screen, 48 h
[1] = tested on: IGROV-1
[2] = tested on: A498
[3] = tested on: DU-145
[4] = tested on: CAKI-1
[5] = tested on: SR
[6] = tested on: SNB-75
[7] = tested on: MDA-N
[8] = tested on: UACC-257
[9] = tested on: Hs-578T
[10] = tested on: OVCAR-8
[11] = tested on: NCI-H460
[12] = tested on: ACHN
[13] = tested on: HCT-15
[14] = tested on: A549
[15] = tested on: MDA-MB-435
[16] = tested on: SF-539
[17] = tested on: LOX IMVI
[18] = tested on: U-251
[19] = tested on: MOLT-4
[20] = tested on: CCRF-CEM

Compound | GI50 [1] | GI50 [2] | GI50 [3] | GI50 [4] | GI50 [5] | GI50 [6] | GI50 [7] | GI50 [8] | GI50 [9] | GI50 [10] | GI50 [11] | GI50 [12] | GI50 [13] | GI50 [14] | GI50 [15] | GI50 [16] | GI50 [17] | GI50 [18] | GI50 [19] | GI50 [20]
C[Si](C)(C)OC1c2[nH]c3ccccc3c2CN2C(=O)CCC12 (stereo not given) | > 100 µM (inactive) | > 100 µM (inactive) | > 100 µM (inactive) | > 100 µM (inactive) | > 100 µM (inactive) | > 100 µM (inactive) | > 100 µM (inactive) | > 100 µM (inactive) | > 100 µM (inactive) | > 100 µM (inactive) | > 100 µM (inactive) | > 100 µM (inactive) | > 100 µM | > 100 µM (inactive) | > 100 µM (inactive) | > 100 µM (inactive) | > 100 µM (inactive) | > 100 µM (inactive) | > 100 µM (inactive) | –
COc1ccc(NC(=S)NC(=O)c2ccc3c(c2)Sc2ccccc2O3)c([N+](=O)[O-])c1 | 18.7 µM (inactive) | 18.5 µM (inactive) | 26.9 µM (inactive) | 39.1 µM (inactive) | 28.8 µM (inactive) | 8.36 µM (inactive) | 44.5 µM (inactive) | 33.1 µM (inactive) | 14 µM (inactive) | 31 µM (inactive) | 43.9 µM (inactive) | 21.4 µM (inactive) | 24 µM | 42.1 µM (inactive) | 55.8 µM (inactive) | 24.9 µM (inactive) | > 100 µM (inactive) | 20.2 µM (inactive) | 34.4 µM (inactive) | 36.4 µM (inactive)
Nc1ncnc2oc(C3OC(COC(=O)c4ccccc4)C(OC(=O)c4ccccc4)C3OC(=O)c3ccccc3)nc12 (stereo not given) | > 100 µM (inactive) | 14.8 µM (inactive) | > 100 µM (inactive) | > 100 µM (inactive) | > 100 µM (inactive) | 29.2 µM (inactive) | > 100 µM (inactive) | > 100 µM (inactive) | 49.2 µM (inactive) | > 100 µM (inactive) | > 100 µM (inactive) | > 100 µM (inactive) | > 100 µM | > 100 µM (inactive) | > 100 µM (inactive) | > 100 µM (inactive) | > 100 µM (inactive) | > 100 µM (inactive) | > 100 µM (inactive) | > 100 µM (inactive)
O=C(Nc1cnc(O)nc1O)Oc1ccccc1 | > 100 µM (inactive) | > 100 µM (inactive) | > 100 µM (inactive) | > 100 µM (inactive) | > 100 µM (inactive) | > 100 µM (inactive) | > 100 µM (inactive) | > 100 µM (inactive) | > 100 µM (inactive) | > 100 µM (inactive) | > 100 µM (inactive) | > 100 µM (inactive) | > 100 µM | > 100 µM (inactive) | > 100 µM (inactive) | > 100 µM (inactive) | > 100 µM (inactive) | > 100 µM (inactive) | > 100 µM (inactive) | > 100 µM (inactive)
CC(C)(CN1CCCCC1)C(=O)CC(SCCS(=O)(=O)O)c1ccccc1 (stereo not given) | 26.4 µM (inactive) | 14.9 µM (inactive) | 11.2 µM (inactive) | 15.5 µM (inactive) | 0.466 µM (active) | 20.4 µM (inactive) | 16.3 µM (inactive) | – | 36.1 µM (inactive) | 18.8 µM (inactive) | 11.9 µM (inactive) | 16.9 µM (inactive) | 8.57 µM | 27.4 µM (inactive) | 11.3 µM (inactive) | 12.6 µM (inactive) | – | 21.6 µM (inactive) | 11.3 µM (inactive) | 5.16 µM (inactive)
COc1cc2ccc1OCc1cccc(n1)COc1ccc(cc1OC)/C=N\CCNCC/N=C\2 | > 100 µM (inactive) | > 100 µM (inactive) | > 100 µM (inactive) | > 100 µM (inactive) | > 100 µM (inactive) | 30.5 µM (inactive) | > 100 µM (inactive) | > 100 µM (inactive) | 35.4 µM (inactive) | > 100 µM (inactive) | > 100 µM (inactive) | > 100 µM (inactive) | > 100 µM | > 100 µM (inactive) | > 100 µM (inactive) | > 100 µM (inactive) | > 100 µM (inactive) | 33.2 µM (inactive) | > 100 µM (inactive) | –
CCOP(=O)(OCC)C(C(=O)OC)C(=O)C(=O)Nc1cccc(O)c1 (stereo not given) | > 100 µM (inactive) | > 100 µM (inactive) | > 100 µM (inactive) | > 100 µM (inactive) | > 100 µM (inactive) | > 100 µM (inactive) | > 100 µM (inactive) | > 100 µM (inactive) | > 100 µM (inactive) | > 100 µM (inactive) | > 100 µM (inactive) | > 100 µM (inactive) | > 100 µM | > 100 µM (inactive) | > 100 µM (inactive) | > 100 µM (inactive) | > 100 µM (inactive) | > 100 µM (inactive) | > 100 µM (inactive) | > 100 µM (inactive)
COC(=O)/C=C/c1cc(O)c2c(c1)[C@H](C(=O)OC)[C@@H](c1ccc(O)c(O)c1)O2 | 0.221 µM (active) | 6.82 µM (inactive) | 0.273 µM (active) | 0.544 µM (active) | 0.0316 µM (active) | 0.0195 µM (active) | 0.0122 µM (active) | 17.4 µM (inactive) | 0.046 µM (active) | 0.169 µM (active) | 2.56 µM (inactive) | 0.08 µM (active) | 0.0451 µM | 0.877 µM (active) | < 0.01 µM (active) | 0.0311 µM (active) | 0.0757 µM (active) | 0.0664 µM (active) | 0.0753 µM (active) | 0.0381 µM (active)
COC1(OC)CCCc2c1no[n+]2[O-] | > 100 µM (inactive) | > 100 µM (inactive) | > 100 µM (inactive) | > 100 µM (inactive) | > 100 µM (inactive) | 79.4 µM (inactive) | > 100 µM (inactive) | > 100 µM (inactive) | > 100 µM (inactive) | > 100 µM (inactive) | > 100 µM (inactive) | > 100 µM (inactive) | > 100 µM | > 100 µM (inactive) | > 100 µM (inactive) | > 100 µM (inactive) | > 100 µM (inactive) | > 100 µM (inactive) | > 100 µM (inactive) | > 100 µM (inactive)
CC(=O)OCCc1cc2ccccc2oc1=O | > 100 µM (inactive) | > 100 µM (inactive) | > 100 µM (inactive) | > 100 µM (inactive) | > 100 µM (inactive) | > 100 µM (inactive) | > 100 µM (inactive) | > 100 µM (inactive) | > 100 µM (inactive) | > 100 µM (inactive) | > 100 µM (inactive) | > 100 µM (inactive) | > 100 µM | > 100 µM (inactive) | > 100 µM (inactive) | > 100 µM (inactive) | > 100 µM (inactive) | > 100 µM (inactive) | > 100 µM (inactive) | > 100 µM (inactive)
O=c1c2sc3nc(NCCN4CCCCC4)ncc3c2ncn1-c1ccccc1 | 40 µM (inactive) | > 100 µM (inactive) | > 100 µM (inactive) | 33 µM (inactive) | > 100 µM (inactive) | 45.3 µM (inactive) | 80.5 µM (inactive) | 31.3 µM (inactive) | 36.4 µM (inactive) | 45.5 µM (inactive) | 55.6 µM (inactive) | 42 µM (inactive) | 40.4 µM | 40.6 µM (inactive) | 72.6 µM (inactive) | – | 17.3 µM (inactive) | 44.4 µM (inactive) | 67.8 µM (inactive) | 44.7 µM (inactive)
Cc1cc2c(cc1-c1cc3c(cc1C)C(C(C)C)=C(O)C(=O)/C3=C\Nc1c(C)n(C)n(-c3ccccc3)c1=O)/C(=C/Nc1c(C)n(C)n(-c3ccccc3)c1=O)C(=O)C(O)=C2C(C)C | 51.1 µM (inactive) | > 100 µM (inactive) | > 100 µM (inactive) | > 100 µM (inactive) | 39.2 µM (inactive) | > 100 µM (inactive) | > 100 µM (inactive) | > 100 µM (inactive) | > 100 µM (inactive) | 82 µM (inactive) | 54.1 µM (inactive) | 47.5 µM (inactive) | > 100 µM | 40.1 µM (inactive) | 79.3 µM (inactive) | 48.1 µM (inactive) | – | 28.2 µM (inactive) | 41.2 µM (inactive) | 33 µM (inactive)
Nc1nc(O)c2nc3c(nc2n1)C(=O)N(c1ccc(C(=O)O)cc1)C3 | > 100 µM (inactive) | > 100 µM (inactive) | > 100 µM (inactive) | > 100 µM (inactive) | > 100 µM (inactive) | > 100 µM (inactive) | > 100 µM (inactive) | > 100 µM (inactive) | > 100 µM (inactive) | > 100 µM (inactive) | > 100 µM (inactive) | > 100 µM (inactive) | > 100 µM | > 100 µM (inactive) | > 100 µM (inactive) | > 100 µM (inactive) | > 100 µM (inactive) | > 100 µM (inactive) | – | –
CN(C)/C=N\c1nncc2[nH]nnc12 | > 100 µM (inactive) | > 100 µM (inactive) | > 100 µM (inactive) | > 100 µM (inactive) | > 100 µM (inactive) | > 100 µM (inactive) | > 100 µM (inactive) | > 100 µM (inactive) | > 100 µM (inactive) | > 100 µM (inactive) | > 100 µM (inactive) | > 100 µM (inactive) | > 100 µM | > 100 µM (inactive) | > 100 µM (inactive) | > 100 µM (inactive) | – | > 100 µM (inactive) | 54.3 µM (inactive) | 26.7 µM (inactive)
Cc1cc2c(s1)C(=O)c1sccc1C2=O | 1.66 µM (inactive) | 1.78 µM (inactive) | 1.83 µM (inactive) | 1.75 µM (inactive) | 3.01 µM (inactive) | 0.397 µM (active) | 0.171 µM (active) | 0.194 µM (active) | 0.417 µM (active) | 0.424 µM (active) | 1.72 µM (inactive) | 1.05 µM (active) | 1.19 µM | 0.625 µM (active) | 0.177 µM (active) | 0.248 µM (active) | 0.152 µM (active) | 1.29 µM (inactive) | 2.3 µM (inactive) | –
